Laboratory results published in patent US7825151B2, “Hexahydro-cyclooctyl pyrazole cannabinoid modulators” (priority 2005, dated 2010).
Several values for one entry are separate records, joined by “and”; a condition that tells them apart may be missing. Identical values can stand only once. Like-named read-outs stand apart in the source and are kept apart here.

Tests used:
CB2 receptor [1] = target: T1, CB2 receptor (Homo sapiens, UniProt P34972); experiment: Binding assay for CB2 ([3H]-CP-55,940 displacement, SK-N-MC membranes)
T1 construct: expressed in transfected cells; host or cells: SK-N-MC cells, stably transfected with pcDNA3 CB-2 (human)
Method: (§1) The human CB1 and CB2 receptors were stably expressed in SK-N-MC cells transfected with pcDNA3 CB-1 (human) or pcDNA3 CB-2 (human). The cells were grown in T-180 cell culture flasks under standard cell culture conditions at 37° C. in a 5% CO2 atmosphere. The cells were harvested by trysinization and homogenized in a homogenization buffer (10 mM Tris, 0.2 mM MgCl2, 5 mM KCl, with protease inhibitors aprotinin, leupeptin, pepstatin A and bacitracin) and centrifuged (2000 g). The supernatant was then centrifuged in 2M sucrose (31,300 g) to produce a semi-purified membrane pellet. The pellet was resuspended in homogenization and stored at −80° C.
(§2) On the day of the assay, the pellet was thawed on ice and diluted in assay buffer (50 mM Tris-HCl, 5 mM MgCl2, 2.5 mM EDTA, 0.5 mg/mL fatty acid free bovine serum albumin, pH 7.5). The diluted membrane pellet was added with buffer, either a test compound or vehicle standard and the radioligand [H]^3+-CP-55,940 (0.2 nM) to the wells of a 96-well polypropylene plate. Non-specific binding was measured in wells containing WIN 55,212 (10 uM). The plate was covered and incubated for 90 minutes at 30° C. The contents were then aspirated onto a Packard Unifilter GF/C filter bottom plate prewet with 0.5% polyethyleneimine. The wells of the polypropylene plate were rinsed and aspirated seven times with a 0.9% saline-0.5% Tween 20 solution. The Unifilter plate was dried, scintillation cocktail was added to each well and the counts representing binding were quantitated in a TopCount scintillation counter.
(§3) For compounds tested, an IC50 binding value was obtained from percent inhibition studies in which various test concentrations were used. The binding value was calculated by linear regression.
(§4) For compounds without an IC50 binding value, the percent inhibition (%) was obtained at a test concentration of ^(1)10 μM, ^(2)1 μM, ^(3)0.2 μM, ^(4)0.003 μM, ^(5) represents an average value.

human CB1 receptor [2] = target: T2, human CB1 receptor (Homo sapiens, UniProt P21554); experiment: Functional cell-based CRE β-gal assay, CB1 (adenylate cyclase activity)
T2 construct: expressed in transfected cells; host or cells: SK-N-MC cells, stably transfected with pcDNA3 CB-1 (human)
From the text: (§5) The CB1 and CB2 receptors are G-protein coupled receptors (GPCR), which influence cell function via the Gi-protein. These receptors modulate the activity of intracellular adenylate cyclase, which in turn produces the intracellular signal messenger cyclic-AMP (cAMP).
(§6) At baseline, or during non-ligand bound conditions, these receptors are constitutively active and tonically suppress adenylate cyclase activity. The binding of an agonist causes further receptor activation and produces additional suppression of adenylate cyclase activity. The binding of an inverse agonist inhibits the constitutive activity of the receptors and results in an increase in adenylate cyclase activity.
(§7) By monitoring intracellular adenylate cyclase activity, the ability of compounds to act as agonists or inverse agonists can be determined.
(§8) Test compounds were evaluated in SK-N-MC cells which, using standard transfection procedures, were stably transfected with human cDNA for pcDNA3-CRE β-gal and pcDNA3 CB1 receptor (human) or pcDNA3 CB2 receptor (human). By expressing CRE β-gal, the cells produced β-galactosidase in response to CRE promoter activation by cAMP. Cells expressing CRE β-gal and either the human CB1 or CB2 receptor will produce less β-galactosidase when treated with a CB1/CB2 agonist and will produce more β-galactosidase when treated with a CB1/CB2 inverse agonist.
(§9) The cells were grown in 96-well plates under standard cell culture conditions at 37° C. in a 5% CO2 atmosphere. After 3 days, the media was removed and a test compound in media (wherein the media was supplemented with 2 mM L-glutamine, […] sodium pyruvate, 0.1% low fatty acid FBS (fetal bovine serum) and antibiotics) was added to the cell. The plates were incubated for 30 minutes at 37° C. and the plate cells were then treated with forskolin over a 4-6 hour period, then washed and lysed. The β-galactosidase activity was quantitated using commercially available kit reagents (Promega Corp. Madison, Wis.) and a Vmax Plate Reader (Molecular Devices, Inc).
(§10) The change in β-galactosidase activity was determined by setting a vehicle treated cell's activity value at 100% and expressing the β-galactosidase activity measured in a corresponding compound treated cell as a percent of the vehicle treated cell activity.
The EC50 value for functional activity for compounds tested was calculated by linear regression and was obtained from studies in which varying compound concentrations were used. Data provided for certain compounds is represented by percent change (%) in functional activity at a single test concentration: ^(1)10 μM and ^(2)1 μM.

human CB1 receptor [3] = target: T2, human CB1 receptor; experiment: Binding assay for CB1 ([3H]-CP-55,940 displacement, SK-N-MC membranes); conditions: for IC50: Cannabinoid CB1 Receptor Binding IC50, radioligand CP-55,940 0.2 nM, SK-N-MC membranes; for inhibition at 0.2 µM: test concentration 0.2 μM (footnote 3)
Method: as §1, §2, §3, §4

CB2 receptor [4] = target: T1, CB2 receptor; experiment: Functional cell-based CRE β-gal assay, CB2 (adenylate cyclase activity)
From the text: as §5, §6, §7, §8, §9
For cells expressing CRE β-gal and the CB2 receptor, CB2 agonists reduced β-galactosidase activity in a dose-dependent manner and CB2 inverse agonists increase β-galactosidase activity in a dose-dependent manner.
as §10
The EC50 value for functional activity for compounds tested was calculated by linear regression and was obtained from studies in which varying compound concentrations were used.
The value of 29% for Compound 5 represents change in functional activity and was obtained from a study in which one compound concentration was used.

[5] = read-out: CB2 receptor binding percent inhibition
[6] = read-out: CB1 receptor binding percent inhibition
[7] = test concentration 0.2 μM (footnote 3), read-out: CB2 receptor binding percent inhibition

T1 sequence (P34972 whole entry): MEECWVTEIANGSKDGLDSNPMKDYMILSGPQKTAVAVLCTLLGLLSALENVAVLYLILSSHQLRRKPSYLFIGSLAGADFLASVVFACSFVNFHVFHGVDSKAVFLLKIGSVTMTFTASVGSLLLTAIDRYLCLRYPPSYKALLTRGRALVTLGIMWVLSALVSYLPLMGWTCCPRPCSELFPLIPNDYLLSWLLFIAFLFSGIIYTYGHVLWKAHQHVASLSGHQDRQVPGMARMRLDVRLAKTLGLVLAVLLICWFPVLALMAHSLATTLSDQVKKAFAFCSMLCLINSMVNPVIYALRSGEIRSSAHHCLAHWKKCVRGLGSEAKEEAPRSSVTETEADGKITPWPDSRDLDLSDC
T2 sequence (P21554 whole entry): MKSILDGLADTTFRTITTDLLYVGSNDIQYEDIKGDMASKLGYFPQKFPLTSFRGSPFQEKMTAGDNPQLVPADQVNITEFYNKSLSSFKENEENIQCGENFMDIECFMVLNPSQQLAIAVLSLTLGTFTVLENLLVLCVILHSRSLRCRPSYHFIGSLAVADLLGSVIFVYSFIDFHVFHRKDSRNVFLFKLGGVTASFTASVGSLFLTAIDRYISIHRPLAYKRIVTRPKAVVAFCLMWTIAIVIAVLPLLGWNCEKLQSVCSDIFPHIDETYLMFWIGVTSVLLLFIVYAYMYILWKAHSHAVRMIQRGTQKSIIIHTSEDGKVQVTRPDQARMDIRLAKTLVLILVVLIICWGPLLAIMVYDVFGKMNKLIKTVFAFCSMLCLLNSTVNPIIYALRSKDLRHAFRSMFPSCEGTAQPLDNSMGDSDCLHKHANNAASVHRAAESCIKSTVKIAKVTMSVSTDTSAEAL

Structure (SMILES): C[C@@H](NC(=O)c1nn(-c2ccc(Cl)cc2Cl)c2c1CCCCC/C2=C\c1ccc(F)cc1)C1CCCCC1 [Cpd 17, (9E)-1-(2,4-dichloro-phenyl)-9-(4-fluoro-benzylidene)-4,5,6,7,8,9-hexahydro-1H-cyclooctapyrazole-3-carboxylic acid [(1R)-1-cyclohexyl-ethyl]-amide]
- inhibition at 0.2 µM (CB2 receptor [1]; [5]): 25%
- EC50 (human CB1 receptor [2]): 40 nM
- IC50 (human CB1 receptor [3]): 10 nM
- inhibition at 0.2 µM (human CB1 receptor [3]; [6]): 86%

Structure (SMILES): O=C(NNc1ccc(Cl)cc1Cl)c1nn(-c2ccc(Cl)cc2Cl)c2c1CCCCC/C2=C\c1ccc(F)cc1 [Cpd 11, (9E)-1-(2,4-dichloro-phenyl)-9-(4-fluoro-benzylidene)-4,5,6,7,8,9-hexahydro-1H-cyclooctapyrazole-3-carboxylic acid N'-(2,4-dichloro-phenyl)-hydrazide]
- inhibition at 0.2 µM (CB2 receptor [1]; [7]): 30%
- inhibition at 0.2 µM (human CB1 receptor [3]; [6]): 56%

Structure (SMILES): O=C(N[C@H](CO)c1ccccc1)c1n[nH]c2c1CCCCC[C@@H]2Cc1cccc(Cl)c1 (relative stereo) [Cpd 24, (9R*)-(3-chloro-benzyl)-4,5,6,7,8,9-hexahydro-1H-cyclooctapyrazole-3-carboxylic acid [(1S)-2-hydroxy-1-phenyl-ethyl]-amide]
- EC50 (human CB1 receptor [2]): > 5000 nM
- EC50 (CB2 receptor [4]): 124 nM

Structure (SMILES): C[C@H](NS(=O)(=O)/C=C/c1n[nH]c2c1CCCCCC2Cc1cccc(Cl)c1)c1ccccc1 (stereo partly drawn) [Cpd 21, (2E)-[9-(3-chloro-benzyl)-4,5,6,7,8,9-hexahydro-1H-cyclooctapyrazol-3-yl]-ethenesulfonic acid [(1S)-1-phenyl-ethyl]-amide]
- EC50 (human CB1 receptor [2]): > 5000 nM
- EC50 (CB2 receptor [4]): 347 nM

Structure (SMILES): CC(NC(=O)c1nn(C2CCCCC2)c2c1CCCCCC2)C12CC3CC(CC(C3)C1)C2 (stereo not drawn) [Cpd 6, 1-cyclohexyl-4,5,6,7,8,9-hexahydro-1H-cyclooctapyrazole-3-carboxylic acid (1-adamantan-1-yl-ethyl)-amide]
- IC50 (CB2 receptor [1]; Cannabinoid CB2 Receptor Binding IC50, radioligand CP-55,940 0.2 nM, SK-N-MC membranes): 0.6 nM and 0.7 nM
- inhibition at 1 µM (CB2 receptor [1]; [5]): 91%
- IC50 (human CB1 receptor [3]): 300 nM
- inhibition at 1 µM (human CB1 receptor [3]; test concentration 1 μM (footnote 2), read-out: CB1 receptor binding percent inhibition): 86%
- EC50 (CB2 receptor [4]): 29 nM

Structure (SMILES): CCOC(=O)C1(NC(=O)c2nn(C3CCCCC3)c3c2CCCCCC3)CC2CCC1C2 (stereo not drawn) [Cpd 4, 2-[(1-cyclohexyl-4,5,6,7,8,9-hexahydro-1H-cyclooctapyrazole-3-carbonyl)-amino]-bicyclo[2.2.1]heptane-2-carboxylic acid ethyl ester]
- inhibition at 0.003 µM (CB2 receptor [1]; [5]): 74%
- CB1 receptor percent change in functional activity (human CB1 receptor [2]; single test concentration 1 μM (footnote 2)): ^(2)−71%
- IC50 (human CB1 receptor [3]): 60 nM

Structure (SMILES): C[C@@H](NC(=O)c1nn(-c2ccc(Cl)cc2Cl)c2c1CCCCC/C2=C\c1ccc(F)cc1)c1ccccc1 [Cpd 12, (9E)-1-(2,4-dichloro-phenyl)-9-(4-fluoro-benzylidene)-4,5,6,7,8,9-hexahydro-1H-cyclooctapyrazole-3-carboxylic acid [(1R)-1-phenyl-ethyl]-amide]
- inhibition at 0.2 µM (CB2 receptor [1]; [5]): 18%
- EC50 (human CB1 receptor [2]): 10 nM
- IC50 (human CB1 receptor [3]): 8 nM
- inhibition at 0.2 µM (human CB1 receptor [3]; [6]): 89%

Structure (SMILES): O=C(NC(CO)c1ccccc1)c1n[nH]c2c1CCCCCC2Cc1cccc(Cl)c1 [Cpd 22, (9S*)-(3-chloro-benzyl)-4,5,6,7,8,9-hexahydro-1H-cyclooctapyrazole-3-carboxylic acid [(1R)-2-hydroxy-1-phenyl-ethyl]-amide]
- EC50 (human CB1 receptor [2]): 114 nM
- EC50 (CB2 receptor [4]): 3 nM

Structure (SMILES): COC[C@H](NC(=O)c1n[nH]c2c1CCCCC[C@@H]2Cc1cccc(Cl)c1)c1ccccc1 (relative stereo) [Cpd 27, (9R*)-(3-chloro-benzyl)-4,5,6,7,8,9-hexahydro-1H-cyclooctapyrazole-3-carboxylic acid [(1R)-2-methoxy-1-phenyl-ethyl]-amide]
- EC50 (human CB1 receptor [2]): 43 nM
- EC50 (CB2 receptor [4]): 26 nM

Structure (SMILES): O=C(N[C@H](CO)c1ccccc1)c1n[nH]c2c1CCCCC[C@H]2Cc1cccc(Cl)c1 (relative stereo) [Cpd 25, (9S*)-(3-chloro-benzyl)-4,5,6,7,8,9-hexahydro-1H-cyclooctapyrazole-3-carboxylic acid [(1S)-2-hydroxy-1-phenyl-ethyl]-amide]
- EC50 (human CB1 receptor [2]): > 5000 nM
- EC50 (CB2 receptor [4]): 14 nM

Structure (SMILES): C[C@@H](NC(=O)c1nn(-c2ccc(Cl)cc2Cl)c2c1CCCCC/C2=C\c1ccc(F)cc1)c1ccccn1 [Cpd 13, (9E)-1-(2,4-dichloro-phenyl)-9-(4-fluoro-benzylidene)-4,5,6,7,8,9-hexahydro-1H-cyclooctapyrazole-3-carboxylic acid [(1R)-1-pyridin-2-yl-ethyl]-amide]
- inhibition at 0.2 µM (CB2 receptor [1]; [5]): 11%
- EC50 (human CB1 receptor [2]): 2 nM
- IC50 (human CB1 receptor [3]): 8 nM
- inhibition at 0.2 µM (human CB1 receptor [3]; [6]): 90%

Structure (SMILES): COC[C@H](NC(=O)c1n[nH]c2c1CCCCC[C@H]2Cc1cccc(Cl)c1)c1ccccc1 (relative stereo) [Cpd 26, (9S*)-(3-chloro-benzyl)-4,5,6,7,8,9-hexahydro-1H-cyclooctapyrazole-3-carboxylic acid [(1R)-2-methoxy-1-phenyl-ethyl]-amide]
- EC50 (human CB1 receptor [2]): 70 nM
- EC50 (CB2 receptor [4]): 5 nM

Structure (SMILES): O=C(NN1CC2CCCC2C1)c1nn(-c2ccc(Cl)cc2Cl)c2c1CCCCC/C2=C\c1ccc(F)cc1 (stereo not drawn) [Cpd 18, (9E)-1-(2,4-dichloro-phenyl)-9-(4-fluoro-benzylidene)-4,5,6,7,8,9-hexahydro-1H-cyclooctapyrazole-3-carboxylic acid (hexahydro-cyclopenta[c]pyrrol-2-yl)-amide]
- EC50 (human CB1 receptor [2]): 20 nM
- IC50 (human CB1 receptor [3]): 50 nM

Structure (SMILES): O=C(c1nn(-c2ccc(Cl)cc2Cl)c2c1CCCCC/C2=C\c1ccc(F)cc1)N1CCCCC1 [Cpd 14, (9E)-[1-(2,4-dichloro-phenyl)-9-(4-fluoro-benzylidene)-4,5,6,7,8,9-hexahydro-1H-cyclooctapyrazol-3-yl]-piperidin-1-yl-methanone]
- inhibition at 0.2 µM (CB2 receptor [1]; [7]): 28%
- inhibition at 0.2 µM (human CB1 receptor [3]; [6]): 50%

Structure (SMILES): O=C(N[C@@H](CO)c1ccccc1)c1n[nH]c2c1CCCCCC2Cc1cccc(Cl)c1 (stereo in doubt) [Cpd 23, (9R*)-(3-chloro-benzyl)-4,5,6,7,8,9-hexahydro-1H-cyclooctapyrazole-3-carboxylic acid [(1R)-2-hydroxy-1-phenyl-ethyl]-amide]
- EC50 (human CB1 receptor [2]; SK-N-MC cells, CRE β-gal, forskolin, agonist, read-out: CB1 Receptor Functional Agonist Activity EC50): 88 nM
- EC50 (CB2 receptor [4]; SK-N-MC cells, CRE β-gal, forskolin, agonist, read-out: CB2 Receptor Functional Agonist Activity EC50): 11 nM

Structure (SMILES): COc1ccc([C@H](C)NS(=O)(=O)/C=C/c2n[nH]c3c2CCCCCC3Cc2cccc(Cl)c2)cc1 (stereo partly drawn) [Cpd 20, (2E)-[9-(3-chloro-benzyl)-4,5,6,7,8,9-hexahydro-1H-cyclooctapyrazol-3-yl]-ethenesulfonic acid [(1S)-1-(4-methoxy-phenyl)-ethyl]-amide]
- EC50 (human CB1 receptor [2]): > 5000 nM
- EC50 (CB2 receptor [4]): ≥ 5000 nM
